{"source": "patent US20100267561A1", "about": "“HERBICIDAL PYRIDAZINONE DERIVATIVES” (priority 2007, published 2010)", "key": {"[1]": {"tested_on": "blackgrass (Alopecurus myosuroides)", "assay": "Test A pre-/postemergence plant response", "assay_type": "in vivo", "outline": "(§1)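 Soil: loam blended with sand. Formulation: non-phytotoxic solvent mixture plus surfactant, applied as preemergence directed soil spray and as postemergence spray. Scoring: visual, 0 no effect to 100 complete control, roughly 10 days post-treatment in greenhouse.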"}, "[2]": {"tested_on": "canarygrass (Phalaris minor)", "assay": "Test A pre-/postemergence plant response", "assay_type": "in vivo", "outline": "as §1"}, "[3]": {"settings": "Postemergence, 31 g ai/ha, 0 to 100 scale, 0 no effect, 100 complete control"}, "[4]": {"settings": "Postemergence, 125 g ai/ha, 0 to 100 scale, 0 no effect, 100 complete control"}, "[5]": {"settings": "Preemergence, 31 g ai/ha, 0 to 100 scale, 0 is no effect, 100 is complete control"}, "[6]": {"settings": "Preemergence, 125 g ai/ha, 0 to 100 scale (0 no effect, 100 complete control)"}, "[7]": {"settings": "Postemergence, 500 g ai/ha, 0 to 100 scale, 0 no effect, 100 complete control"}, "[8]": {"settings": "Preemergence, 500 g ai/ha, 0 to 100 scale (0 no effect, 100 complete control)"}}, "data": [{"smiles": "CCc1cc(-c2ccc(Br)cc2)nn1-c1c(O)c(C)nn(C)c1=O", "note": "[Compound 74]", "values": [{"measurement": "Plant response rating, Blackgrass", "setting": "[1]; [3]", "value": 100}, {"measurement": "Plant response rating, Blackgrass", "setting": "[1]; [4]", "value": 100}, {"measurement": "Plant response rating, Blackgrass", "setting": "[1]; [5]", "value": 100}, {"measurement": "Plant response rating, Blackgrass", "setting": "[1]; [6]", "value": 100}, {"measurement": "Plant response rating, Canarygrass", "setting": "[2]; [3]", "value": 100}, {"measurement": "Plant response rating, Canarygrass", "setting": "[2]; [4]", "value": 100}, {"measurement": "Plant response rating, Canarygrass", "setting": "[2]; [5]", "value": 80}, {"measurement": "Plant response rating, Canarygrass", "setting": "[2]; [6]", "value": 100}]}, {"smiles": "CCCc1cc(-c2ccc(Cl)cc2)nn1-c1c(O)cnn(C)c1=O", "note": "[Compound 76]", "values": [{"measurement": "Plant response rating, Blackgrass", "setting": "[1]; [3]", "value": 90}, {"measurement": "Plant response rating, Blackgrass", "setting": "[1]; [4]", "value": 100}, {"measurement": "Plant response rating, Blackgrass", "setting": "[1]; [6]", "value": 90}, {"measurement": "Plant response rating, Canarygrass", "setting": "[2]; [3]", "value": 40}, {"measurement": "Plant response rating, Canarygrass", "setting": "[2]; [4]", "value": 100}, {"measurement": "Plant response rating, Canarygrass", "setting": "[2]; [5]", "value": 30}, {"measurement": "Plant response rating, Canarygrass", "setting": "[2]; [6]", "value": 70}]}, {"smiles": "Cc1cc(-c2ccc(Br)cc2)nn1-c1c(O)cnn(C2CCCCO2)c1=O", "note": "(stereo not shown) [Compound 77, 4-[3-(4-bromophenyl)-5-methyl-1H-pyrazol-1-yl]-5-hydroxy-2-(tetrahydro-2H-pyran-2-yl)-3(2H)-pyridazinone]", "values": [{"measurement": "Plant response rating, Blackgrass", "setting": "[1]; [4]", "value": 100}, {"measurement": "Plant response rating, Blackgrass", "setting": "[1]; [7]", "value": 100}, {"measurement": "Plant response rating, Blackgrass", "setting": "[1]; [6]", "value": 80}, {"measurement": "Plant response rating, Blackgrass", "setting": "[1]; [8]", "value": 100}, {"measurement": "Plant response rating, Canarygrass", "setting": "[2]; [4]", "value": 60}, {"measurement": "Plant response rating, Canarygrass", "setting": "[2]; [7]", "value": 100}, {"measurement": "Plant response rating, Canarygrass", "setting": "[2]; [8]", "value": 90}]}, {"smiles": "Cc1nn(C)c(=O)c(-c2nc(-c3ccc(Cl)cc3)sc2C)c1O", "note": "[Compound 79, 4-[2-(4-chlorophenyl)-5-methyl-4-thiazolyl]-5-hydroxy-2,6-dimethyl-3(2H)-pyridazinone]", "values": [{"measurement": "Plant response rating, Blackgrass", "setting": "[1]; [3]", "value": 60}, {"measurement": "Plant response rating, Blackgrass", "setting": "[1]; [4]", "value": 100}, {"measurement": "Plant response rating, Blackgrass", "setting": "[1]; [5]", "value": 80}, {"measurement": "Plant response rating, Blackgrass", "setting": "[1]; [6]", "value": 100}, {"measurement": "Plant response rating, Canarygrass", "setting": "[2]; [3]", "value": 40}, {"measurement": "Plant response rating, Canarygrass", "setting": "[2]; [4]", "value": 90}, {"measurement": "Plant response rating, Canarygrass", "setting": "[2]; [5]", "value": 0}, {"measurement": "Plant response rating, Canarygrass", "setting": "[2]; [6]", "value": 100}]}, {"smiles": "COc1nn(C)c(=O)c(-n2nc(-c3ccc(Br)cc3)cc2C)c1O", "note": "[Compound 82]", "values": [{"measurement": "Plant response rating, Blackgrass", "setting": "[1]; [3]", "value": 100}, {"measurement": "Plant response rating, Blackgrass", "setting": "[1]; [4]", "value": 100}, {"measurement": "Plant response rating, Blackgrass", "setting": "[1]; [5]", "value": 70}, {"measurement": "Plant response rating, Blackgrass", "setting": "[1]; [6]", "value": 100}, {"measurement": "Plant response rating, Canarygrass", "setting": "[2]; [3]", "value": 100}, {"measurement": "Plant response rating, Canarygrass", "setting": "[2]; [4]", "value": 100}, {"measurement": "Plant response rating, Canarygrass", "setting": "[2]; [5]", "value": 20}, {"measurement": "Plant response rating, Canarygrass", "setting": "[2]; [6]", "value": 100}]}, {"smiles": "CCc1c(C)c(-c2ccc(Br)cc2)nn1-c1c(O)cnn(C)c1=O", "note": "[Compound 83]", "values": [{"measurement": "Plant response rating, Blackgrass", "setting": "[1]; [3]", "value": 90}, {"measurement": "Plant response rating, Blackgrass", "setting": "[1]; [4]", "value": 100}, {"measurement": "Plant response rating, Blackgrass", "setting": "[1]; [5]", "value": 20}, {"measurement": "Plant response rating, Blackgrass", "setting": "[1]; [6]", "value": 100}, {"measurement": "Plant response rating, Canarygrass", "setting": "[2]; [3]", "value": 70}, {"measurement": "Plant response rating, Canarygrass", "setting": "[2]; [4]", "value": 100}, {"measurement": "Plant response rating, Canarygrass", "setting": "[2]; [6]", "value": 90}]}, {"smiles": "Cc1cn(-c2ccc(C(F)(F)F)cc2)nc1-c1c(O)cnn(C)c1=O", "note": "[Compound 85, 5-hydroxy-2-methyl-4-[4-methyl-1-[4-(trifluoromethyl)phenyl]-1H-pyrazol-3-yl]-3(2H)-pyridazinone]", "values": [{"measurement": "Plant response rating, Blackgrass", "setting": "[1]; [3]", "value": 0}, {"measurement": "Plant response rating, Blackgrass", "setting": "[1]; [4]", "value": 40}, {"measurement": "Plant response rating, Blackgrass", "setting": "[1]; [5]", "value": 0}, {"measurement": "Plant response rating, Blackgrass", "setting": "[1]; [6]", "value": 40}, {"measurement": "Plant response rating, Canarygrass", "setting": "[2]; [3]", "value": 0}, {"measurement": "Plant response rating, Canarygrass", "setting": "[2]; [4]", "value": 20}, {"measurement": "Plant response rating, Canarygrass", "setting": "[2]; [5]", "value": 40}, {"measurement": "Plant response rating, Canarygrass", "setting": "[2]; [6]", "value": 70}]}, {"smiles": "Cn1ncc(O)c(-c2nn(-c3ccc(C(F)(F)F)cc3)cc2Br)c1=O", "note": "[Compound 87, 4-[4-bromo-1-[4-(trifluoromethyl)phenyl]-1H-pyrazol-3-yl]-5-hydroxy-2-methyl-3(2H)-pyridazinone]", "values": [{"measurement": "Plant response rating, Blackgrass", "setting": "[1]; [3]", "value": 30}, {"measurement": "Plant response rating, Blackgrass", "setting": "[1]; [4]", "value": 80}, {"measurement": "Plant response rating, Blackgrass", "setting": "[1]; [5]", "value": 30}, {"measurement": "Plant response rating, Blackgrass", "setting": "[1]; [6]", "value": 90}, {"measurement": "Plant response rating, Canarygrass", "setting": "[2]; [3]", "value": 10}, {"measurement": "Plant response rating, Canarygrass", "setting": "[2]; [4]", "value": 70}, {"measurement": "Plant response rating, Canarygrass", "setting": "[2]; [5]", "value": 0}, {"measurement": "Plant response rating, Canarygrass", "setting": "[2]; [6]", "value": 90}]}]}
